# Laboratory results reported in ChEMBL document CHEMBL1201862, “PubChem BioAssay data set” (2004).
# Active and inactive are the calls of the source.
# Experiments:
# [1] = molecular target: DNA dC->dU-editing enzyme APOBEC-3A (Homo sapiens, UniProt P31941); test: Dose Response confirmation of small molecule APOBEC3A DNA Deaminase Inhibitors via a fluorescence-based single-stranded DNA deaminase assay. [Related pubchem assays (depositor defined):AID493011, AID493024]; format: functional
# [2] = molecular target: DNA dC->dU-editing enzyme APOBEC-3G (Homo sapiens, UniProt Q9HC16); format: functional;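 note: Dose-response counterscreen measuring inhibition of APOBEC3G DNA deaminase activity, run while confirming APOBEC3A inhibitors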
# HEK293 [3] = test: inhibition of NOD1-driven NF-kB reporter – cell-based, luminescence, uHTS, primary screen (AID 1578); format: functional; conditions: Homo sapiens
# HEK293 [4] = test: cells; format: functional, cell-based; conditions: Homo sapiens
# HEK293 [5] = test: cells; format: functional, cell-based; conditions: Homo sapiens; remark: listed apart in the source
# HEK293 [6] = test: NOD2 signaling inhibitors in MDP-stimulated cells, cell-based, uHTS, luminescence (AID 2001); format: functional; conditions: Homo sapiens
# [7] = molecular target: Peroxisome proliferator-activated receptor gamma/Nuclear receptor coactivator 3 (Homo sapiens, UniProt P37231); test: TR-FRET dose response biochemical High Throughput Screening assay for agonists of the steroid receptor coactivator 3 (SRC-3) recruitment by the peroxisome proliferator-activated receptor gamma (PPAR gamma): non-selective agonists. [Related pubchem assays: 1301 (Confirmation screen.), 1048 (Primary screen.)]; format: functional
# Large T antigen = Large T antigen (Simian virus 40, UniProt P03070); format: functional, Betapolyomavirus macacae;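 note: Confirmatory-stage PubChem screen for compounds that inhibit SV40 T antigen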
# [8] = molecular target: Peroxisome proliferator-activated receptor gamma/Nuclear receptor coactivator 2 (Homo sapiens, UniProt P37231); test: (§1) TR-FRET dose response biochemical High Throughput Screening assay for agonists of the steroid receptor coactivator 2 (SRC-2) recruitment by the peroxisome proliferator-activated receptor gamma (PPAR gamma): non-selective agonists. [Related pubchem assays: 1297, 1032 ]; format: functional
# [9] = molecular target: Peroxisome proliferator-activated receptor gamma/Nuclear receptor coactivator 1 (Homo sapiens, UniProt P37231); test: as §1, with “1 (SRC-1)” for “2 (SRC-2)”, “assays (depositor defined):AID1300, AID1808, AID504735, AID631]” for “assays: 1297, 1032 ]”; format: protein assay
# Cytochrome P450 2C19 = Cytochrome P450 2C19 (Homo sapiens, UniProt P33261); test: Cytochrome panel assay with activity outcomes. Panel member name: p450-cyp2c19 Compounds with AC50 equal or less than 10 uM are considered active; format: functional
# Cytochrome P450 2D6 = Cytochrome P450 2D6 (Homo sapiens, UniProt P10635);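 note: CYP2D6 member of a cytochrome P450 panel assay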
# Cytochrome P450 2C9 [10] = molecular target: T1, Cytochrome P450 2C9 (Homo sapiens, UniProt P11712)
# Cytochrome P450 2C9 [11] = molecular target: T1, Cytochrome P450 2C9; remark: listed apart in the source
# Chain of DNA dC->dU-editing enzyme APOBEC-3A (P31941 whole entry): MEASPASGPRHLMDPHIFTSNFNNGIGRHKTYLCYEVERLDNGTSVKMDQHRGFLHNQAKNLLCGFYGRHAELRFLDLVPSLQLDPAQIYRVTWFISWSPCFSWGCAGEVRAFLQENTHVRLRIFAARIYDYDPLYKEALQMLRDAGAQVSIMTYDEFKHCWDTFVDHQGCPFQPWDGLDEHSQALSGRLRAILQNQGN
# Chain of Peroxisome proliferator-activated receptor gamma/Nuclear receptor coactivator 3 (P37231 whole entry): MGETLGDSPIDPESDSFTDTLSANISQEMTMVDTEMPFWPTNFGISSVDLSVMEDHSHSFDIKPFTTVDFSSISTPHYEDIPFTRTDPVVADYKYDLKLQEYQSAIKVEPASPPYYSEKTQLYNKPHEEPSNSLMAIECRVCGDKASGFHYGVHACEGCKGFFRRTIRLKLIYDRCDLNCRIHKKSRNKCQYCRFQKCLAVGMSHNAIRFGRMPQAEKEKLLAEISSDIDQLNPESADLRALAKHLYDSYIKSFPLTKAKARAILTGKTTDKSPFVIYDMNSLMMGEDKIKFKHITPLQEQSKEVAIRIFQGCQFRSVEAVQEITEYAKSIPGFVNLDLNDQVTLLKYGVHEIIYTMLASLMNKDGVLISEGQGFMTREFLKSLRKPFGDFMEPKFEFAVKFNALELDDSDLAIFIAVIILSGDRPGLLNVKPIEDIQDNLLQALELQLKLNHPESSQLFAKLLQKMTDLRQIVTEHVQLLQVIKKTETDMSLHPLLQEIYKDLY
# Chain of Peroxisome proliferator-activated receptor gamma/Nuclear receptor coactivator 3 (Q9Y6Q9 whole entry, further chain): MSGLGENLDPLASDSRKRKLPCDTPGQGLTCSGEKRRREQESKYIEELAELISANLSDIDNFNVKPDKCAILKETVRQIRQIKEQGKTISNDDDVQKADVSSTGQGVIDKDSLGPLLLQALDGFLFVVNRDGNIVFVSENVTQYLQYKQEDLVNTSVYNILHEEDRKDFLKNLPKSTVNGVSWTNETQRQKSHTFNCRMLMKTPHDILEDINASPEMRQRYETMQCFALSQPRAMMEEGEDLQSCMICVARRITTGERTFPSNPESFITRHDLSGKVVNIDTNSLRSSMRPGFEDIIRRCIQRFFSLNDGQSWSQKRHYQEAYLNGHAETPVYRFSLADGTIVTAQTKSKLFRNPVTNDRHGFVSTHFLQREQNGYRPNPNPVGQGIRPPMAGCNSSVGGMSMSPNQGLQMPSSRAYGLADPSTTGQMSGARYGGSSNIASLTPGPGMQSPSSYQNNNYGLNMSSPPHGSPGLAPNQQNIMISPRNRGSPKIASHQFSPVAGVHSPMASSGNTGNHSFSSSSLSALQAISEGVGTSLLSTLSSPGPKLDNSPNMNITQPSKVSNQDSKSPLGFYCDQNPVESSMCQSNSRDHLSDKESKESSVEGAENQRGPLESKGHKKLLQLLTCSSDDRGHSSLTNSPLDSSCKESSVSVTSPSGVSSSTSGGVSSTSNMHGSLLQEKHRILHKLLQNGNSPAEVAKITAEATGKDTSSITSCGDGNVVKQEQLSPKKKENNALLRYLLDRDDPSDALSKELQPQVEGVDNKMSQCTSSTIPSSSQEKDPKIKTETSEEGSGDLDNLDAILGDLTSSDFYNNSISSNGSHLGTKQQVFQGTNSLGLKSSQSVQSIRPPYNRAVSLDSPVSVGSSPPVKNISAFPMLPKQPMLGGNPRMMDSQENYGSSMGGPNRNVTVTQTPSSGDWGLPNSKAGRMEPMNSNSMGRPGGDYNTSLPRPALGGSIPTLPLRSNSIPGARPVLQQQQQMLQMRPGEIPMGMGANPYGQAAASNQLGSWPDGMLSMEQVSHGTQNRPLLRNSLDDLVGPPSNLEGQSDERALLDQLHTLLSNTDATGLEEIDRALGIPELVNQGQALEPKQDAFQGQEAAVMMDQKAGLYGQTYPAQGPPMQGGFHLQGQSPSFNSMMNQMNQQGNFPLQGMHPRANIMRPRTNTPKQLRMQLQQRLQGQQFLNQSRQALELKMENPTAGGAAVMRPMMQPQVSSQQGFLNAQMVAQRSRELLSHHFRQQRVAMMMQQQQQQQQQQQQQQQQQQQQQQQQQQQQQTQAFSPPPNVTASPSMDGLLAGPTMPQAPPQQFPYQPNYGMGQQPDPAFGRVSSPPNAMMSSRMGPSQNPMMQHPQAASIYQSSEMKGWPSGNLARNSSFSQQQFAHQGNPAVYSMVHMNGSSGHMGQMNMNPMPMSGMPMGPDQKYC
# Chain of Peroxisome proliferator-activated receptor gamma/Nuclear receptor coactivator 1 (P37231 whole entry): as the sequence (P37231 whole entry) above
# Chain of Peroxisome proliferator-activated receptor gamma/Nuclear receptor coactivator 1 (Q15788 whole entry, further chain): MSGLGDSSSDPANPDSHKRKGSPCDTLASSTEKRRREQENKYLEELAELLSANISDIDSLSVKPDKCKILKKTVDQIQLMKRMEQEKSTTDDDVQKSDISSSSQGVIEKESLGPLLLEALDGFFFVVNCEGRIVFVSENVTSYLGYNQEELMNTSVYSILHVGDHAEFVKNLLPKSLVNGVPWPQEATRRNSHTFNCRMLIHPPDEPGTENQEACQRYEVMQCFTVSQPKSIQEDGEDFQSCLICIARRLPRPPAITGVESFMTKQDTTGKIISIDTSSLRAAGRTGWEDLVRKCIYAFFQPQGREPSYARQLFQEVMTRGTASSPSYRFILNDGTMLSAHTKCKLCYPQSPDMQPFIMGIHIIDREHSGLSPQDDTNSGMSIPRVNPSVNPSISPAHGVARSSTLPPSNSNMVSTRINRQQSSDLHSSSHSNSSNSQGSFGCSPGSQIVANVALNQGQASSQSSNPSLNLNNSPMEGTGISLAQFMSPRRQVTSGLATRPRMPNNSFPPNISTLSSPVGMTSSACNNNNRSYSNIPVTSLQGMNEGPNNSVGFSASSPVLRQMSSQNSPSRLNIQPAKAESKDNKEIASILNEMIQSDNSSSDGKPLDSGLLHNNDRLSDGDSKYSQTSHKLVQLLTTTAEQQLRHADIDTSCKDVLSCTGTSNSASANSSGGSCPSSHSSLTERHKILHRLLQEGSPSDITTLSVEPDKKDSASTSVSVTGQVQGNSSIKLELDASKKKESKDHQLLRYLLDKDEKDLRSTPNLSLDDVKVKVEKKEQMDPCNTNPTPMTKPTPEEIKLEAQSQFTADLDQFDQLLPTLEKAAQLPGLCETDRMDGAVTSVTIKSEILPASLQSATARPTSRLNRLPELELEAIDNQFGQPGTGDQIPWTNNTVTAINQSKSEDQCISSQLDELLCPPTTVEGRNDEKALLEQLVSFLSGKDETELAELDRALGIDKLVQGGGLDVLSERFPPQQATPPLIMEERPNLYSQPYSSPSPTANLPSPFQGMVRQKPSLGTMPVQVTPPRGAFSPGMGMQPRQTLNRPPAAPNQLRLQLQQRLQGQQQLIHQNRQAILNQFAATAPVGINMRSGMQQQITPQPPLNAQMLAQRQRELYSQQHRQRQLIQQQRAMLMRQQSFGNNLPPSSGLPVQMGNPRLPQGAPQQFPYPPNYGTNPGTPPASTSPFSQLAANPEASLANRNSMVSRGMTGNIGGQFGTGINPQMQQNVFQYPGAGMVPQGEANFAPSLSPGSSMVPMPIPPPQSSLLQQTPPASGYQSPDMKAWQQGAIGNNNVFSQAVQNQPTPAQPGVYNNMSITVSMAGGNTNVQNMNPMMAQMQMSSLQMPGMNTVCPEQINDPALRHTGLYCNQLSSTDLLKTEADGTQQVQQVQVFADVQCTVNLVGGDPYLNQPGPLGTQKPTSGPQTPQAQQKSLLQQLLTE
# Chain of DNA dC->dU-editing enzyme APOBEC-3G (Q9HC16 whole entry): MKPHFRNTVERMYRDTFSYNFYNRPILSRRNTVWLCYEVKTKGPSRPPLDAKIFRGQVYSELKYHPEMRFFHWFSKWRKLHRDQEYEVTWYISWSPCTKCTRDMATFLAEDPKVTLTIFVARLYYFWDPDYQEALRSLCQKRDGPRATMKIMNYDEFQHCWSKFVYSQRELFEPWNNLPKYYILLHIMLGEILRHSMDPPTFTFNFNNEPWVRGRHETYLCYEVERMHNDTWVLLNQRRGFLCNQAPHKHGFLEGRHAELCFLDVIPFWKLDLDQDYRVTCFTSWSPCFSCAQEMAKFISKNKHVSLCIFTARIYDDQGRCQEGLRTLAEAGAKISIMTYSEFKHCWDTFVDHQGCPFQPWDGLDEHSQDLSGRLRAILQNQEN
# Chain of Cytochrome P450 2C19 (P33261 whole entry): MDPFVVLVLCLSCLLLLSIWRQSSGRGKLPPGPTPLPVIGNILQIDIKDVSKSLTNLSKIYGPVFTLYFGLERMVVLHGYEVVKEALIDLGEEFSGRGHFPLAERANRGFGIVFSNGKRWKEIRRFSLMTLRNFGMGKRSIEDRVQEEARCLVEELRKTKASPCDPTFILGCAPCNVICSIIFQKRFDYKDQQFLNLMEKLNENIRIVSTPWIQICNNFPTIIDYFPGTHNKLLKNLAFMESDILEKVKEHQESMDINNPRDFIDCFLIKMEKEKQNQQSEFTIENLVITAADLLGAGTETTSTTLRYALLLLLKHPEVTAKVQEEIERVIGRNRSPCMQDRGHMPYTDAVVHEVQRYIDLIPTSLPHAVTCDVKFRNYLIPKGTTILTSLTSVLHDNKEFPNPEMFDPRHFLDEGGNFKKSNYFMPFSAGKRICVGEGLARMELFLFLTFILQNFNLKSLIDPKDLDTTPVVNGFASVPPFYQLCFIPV
SMILES,EC50 [7],EC50 [8],EC50 [9],IC50 [1],IC50 [2],also measured
C[N+]1(CCCOC(=O)C2(c3ccccc3)CCCC2)CCOCC1,–,–,–,1.61 µM (active),1.99 µM (active),–
COc1cc(C(=O)NCCOc2cc(C)ccc2C(C)C)cc(OC)c1OC,–,–,–,–,–,EC50 (HEK293 [3]): 3.03 µM (active); IC50 (HEK293 [4]): 12 µM (active); IC50 (HEK293 [5]): 5.52 µM (active); IC50 (HEK293 [6]): 5.42 µM (active)
CN(C)S(=O)(=O)c1ccc(C(=O)NCC[N+]2(C)CCCCCC2)o1,–,–,–,1.89 µM (active),4.08 µM (active),–
CC(C)CNC(=O)O,–,–,–,–,–,AC50 (Cytochrome P450 2C19): inconclusive; AC50 (Cytochrome P450 2D6): inconclusive
COc1ccc(C(=O)CN(C(=O)c2ccc(Cl)cc2)N2C(=O)c3ccccc3C2=O)cc1,–,–,–,–,–,AC50 (Cytochrome P450 2D6): inconclusive; AC50 (Cytochrome P450 2C9 [10]): 10 µM (inconclusive)
CC1CCN(C(=O)c2ncn(C)c2C(=O)N2CCC(C)CC2)CC1,–,–,–,2.34 µM (active),2.83 µM (active),–

# The next lines start with results.
EC50 [7],EC50 [8],EC50 [9],SMILES,IC50 [1],IC50 [2],also measured
> 79.4 µM (not active),> 79.4 µM (not active),> 79.4 µM (inactive),O=c1oc2cc(O)ccc2c2ccccc12,–,–,IC50 (Large T antigen): 38.8 µM (active)
> 8.82 µM (not active),5.64 µM (active),5.96 µM (active),Cc1ccc(Sc2ccc(NC(=O)c3ccc(S(C)(=O)=O)cc3Cl)cc2)cc1,–,–,AC50 (Cytochrome P450 2C19; read-out: AC50): 39.8 µM (inconclusive); AC50 (Cytochrome P450 2C9 [11]): inconclusive
> 79.4 µM (not active),> 79.4 µM (not active),> 79.4 µM (inactive),CCOC(=O)C1CCN(C(=O)CSc2cc(=O)n(C)c3ccccc23)CC1,–,–,–
> 79.4 µM (not active),> 26.5 µM (not active),> 79.4 µM (inactive),Cn1c(=O)cc(SCC(=O)NCCCN2CCN(c3ccc(F)cc3)CC2)c2ccccc21,–,–,–
